In the supplement of paper PMC10883282:

How the values were obtained:
Assay in all cases: relative viability vs DMSO control (72 h) (fraction); higher = more viable cells
SK-LMS-1 = system: SK-LMS-1
How it was run: (§1)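 Sarcoma cell lines went into 384-well plates at densities chosen to reach 80–90% confluence. After 24 h, each well received 2.5 µl of serially diluted compound, with source plates running from 10 mM to 0.0002 mM, and the plates were kept 72 h at 37 °C, 5% CO2, alongside 0.1% DMSO vehicle and a 5 µM positive control. Relative viability was derived from ATPLite readings as percent growth and averaged over up to triplicate wells. The data were then rescaled so that 1 stands for full and 0 for none.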

VA-ES-BJ = system: VA-ES-BJ
How it was run: as §1

KHOS-240S = system: KHOS-240S
How it was run: as §1

A204 = system: A204
How it was run: as §1

MES-SA = system: MES-SA
How it was run: as §1

SW1353 = system: SW1353
How it was run: as §1

SK-ES-1 = system: SK-ES-1
How it was run: as §1

RD = system: RD
How it was run: as §1

SW872 = system: SW872
How it was run: as §1

G401 = system: G401
How it was run: as §1

HS729 = system: HS729
How it was run: as §1

SW982 = system: SW982
How it was run: as §1

CCCS(=O)(=O)N[C@H]1C[C@@H](N(C)c2ncnc3[nH]ccc23)C1 [Abrocitinib]
Conditions	relative viability
A204, 0.00017 µM	1.07
A204, 0.00051 µM	1.06
A204, 0.00152 µM	1.07
A204, 0.00457 µM	1.06
A204, 0.01372 µM	1.07
A204, 0.04115 µM	1.07
A204, 0.1235 µM	1.07
A204, 0.3704 µM	1.07
A204, 1.111 µM	1.03
A204, 3.333 µM	1.01
A204, 10 µM	0.949
G401, 0.00017 µM	1
G401, 0.00051 µM	0.981
G401, 0.00152 µM	0.994
G401, 0.00457 µM	1.04
G401, 0.01372 µM	1.01
G401, 0.04115 µM	0.981
G401, 0.1235 µM	0.984
G401, 0.3704 µM	1.01
G401, 1.111 µM	1.01
G401, 3.333 µM	0.956
G401, 10 µM	0.915
HS729, 0.00017 µM	0.926
HS729, 0.00051 µM	0.935
HS729, 0.00152 µM	0.937
HS729, 0.00457 µM	0.951
HS729, 0.01372 µM	0.94
HS729, 0.04115 µM	0.95
HS729, 0.1235 µM	0.909
HS729, 0.3704 µM	0.91
HS729, 1.111 µM	0.941
HS729, 3.333 µM	0.8836
HS729, 10 µM	0.892
KHOS-240S, 0.00017 µM	1.03
KHOS-240S, 0.00051 µM	1.03
KHOS-240S, 0.00152 µM	1.03
KHOS-240S, 0.00457 µM	1.04
KHOS-240S, 0.01372 µM	1.04
KHOS-240S, 0.04115 µM	1.04
KHOS-240S, 0.1235 µM	0.9912
KHOS-240S, 0.3704 µM	1.02
KHOS-240S, 1.111 µM	1.03
KHOS-240S, 3.333 µM	1.05
KHOS-240S, 10 µM	0.988
MES-SA, 0.00017 µM	0.929
MES-SA, 0.00051 µM	0.904
MES-SA, 0.00152 µM	0.9
MES-SA, 0.00457 µM	0.9254
MES-SA, 0.01372 µM	0.917
MES-SA, 0.04115 µM	0.932
MES-SA, 0.1235 µM	0.922
MES-SA, 0.3704 µM	0.942
MES-SA, 1.111 µM	0.912
MES-SA, 3.333 µM	0.933
MES-SA, 10 µM	0.893
RD, 0.00017 µM	1.06
RD, 0.00051 µM	1.12
RD, 0.00152 µM	1.11
RD, 0.00457 µM	1.09
RD, 0.01372 µM	1.09
RD, 0.04115 µM	1.11
RD, 0.1235 µM	1.09
RD, 0.3704 µM	1.08
RD, 1.111 µM	1.15
RD, 3.333 µM	1.1
RD, 10 µM	1.09
SK-ES-1, 0.00017 µM	1.03
SK-ES-1, 0.00051 µM	1.06
SK-ES-1, 0.00152 µM	1.04
SK-ES-1, 0.00457 µM	1.03
SK-ES-1, 0.01372 µM	1.03
SK-ES-1, 0.04115 µM	1.02
SK-ES-1, 0.1235 µM	1.03
SK-ES-1, 0.3704 µM	1.03
SK-ES-1, 1.111 µM	1.02
SK-ES-1, 3.333 µM	1.03
SK-ES-1, 10 µM	1
SK-LMS-1, 0.00017 µM	1
SK-LMS-1, 0.00051 µM	1.03
SK-LMS-1, 0.00152 µM	1.01
SK-LMS-1, 0.00457 µM	1.02
SK-LMS-1, 0.01372 µM	1.04
SK-LMS-1, 0.04115 µM	1.04
SK-LMS-1, 0.1235 µM	0.992
SK-LMS-1, 0.3704 µM	1.01
SK-LMS-1, 1.111 µM	1.01
SK-LMS-1, 3.333 µM	1.02
SK-LMS-1, 10 µM	1.02
SW872, 0.00017 µM	0.993
SW872, 0.00051 µM	0.995
SW872, 0.00152 µM	0.991
SW872, 0.00457 µM	1
SW872, 0.01372 µM	1.01
SW872, 0.04115 µM	1.03
SW872, 0.1235 µM	1.02
SW872, 0.3704 µM	1.02
SW872, 1.111 µM	1.03
SW872, 3.333 µM	1.01
SW872, 10 µM	1
SW982, 0.00017 µM	1.03
SW982, 0.00051 µM	1.04
SW982, 0.00152 µM	1.04
SW982, 0.00457 µM	1.04
SW982, 0.01372 µM	1.02
SW982, 0.04115 µM	1.06
SW982, 0.1235 µM	1.07
SW982, 0.3704 µM	1.044
SW982, 1.111 µM	1.04
SW982, 3.333 µM	1.056
SW982, 10 µM	1.06
SW1353, 0.00017 µM	0.96
SW1353, 0.00051 µM	0.966
SW1353, 0.00152 µM	0.929
SW1353, 0.00457 µM	0.96
SW1353, 0.01372 µM	1
SW1353, 0.04115 µM	0.9632
SW1353, 0.1235 µM	0.977
SW1353, 0.3704 µM	0.999
SW1353, 1.111 µM	0.958
SW1353, 3.333 µM	0.991
SW1353, 10 µM	0.996
VA-ES-BJ, 0.00017 µM	1.02
VA-ES-BJ, 0.00051 µM	1.02
VA-ES-BJ, 0.00152 µM	1
VA-ES-BJ, 0.00457 µM	1.03
VA-ES-BJ, 0.01372 µM	1.02
VA-ES-BJ, 0.04115 µM	1.05
VA-ES-BJ, 0.1235 µM	1.03
VA-ES-BJ, 0.3704 µM	1.05
VA-ES-BJ, 1.111 µM	1.06
VA-ES-BJ, 3.333 µM	1.03
VA-ES-BJ, 10 µM	1.01
